pEC50: −log10 of the molar value.
Target: T1, human Kv7.2 (Homo sapiens, UniProt O43526)
T1 construct: expressed in transfected cells
Assay: activation (potentiation) of Kv7.2 current, SyncroPatch 384 electrophysiology in CHO cells stably expressing human Kv7.2
Type: cell-based
Conditions: human Kv7.2 in CHO cells; in presence of 5.6 μM zinc pyrithione; % activation relative to 30 μM ML-213
Protocol: The potency of Kv7 potentiators was determined using the SyncroPatch 384 (Nanion) high throughput electrophysiology platform.
CHO cells stably expressing either human Kv7.2, Kv7.4 or Kv7.5/7.3 under a constitutive CMV promoter were used for these studies. Cells were maintained in F12 Hams+1 mM L-glutamine (Hyclone) supplemented with 10% FBS (Sigma), 0.3×NEAA (Non-essential Gamino-acids) and 400 ug/ml G418 at 37° C. in 5% CO2. Cells were cultured in T-225 flasks (Nunc) for 2-3 days to reach 85-95% confluence prior to electrophysiological recording.
Earle's balanced salt solution (in mM): 135 NaCl, 5.4 KCl, 5 Glucose, 2 CaCl2), 1 MgCl2, 5 HEPES, pH 7.4. Seal enhancer solution (in mM): 90 NaCl, 3 KCl, 35 CaCl2), 10 MgCl2, 10 HEPES, pH 7.4. Extracellular recording solution (in mM): 71 NaCl, 70 NMDG, 13 KCl. 5 Glucose, 2 CaCl2, 1 MgCl2, 10 HEPES, pH 7.4. Intracellular recording solution (in mM): 130 KF, 20 KCl, 4 EGTA, 10 HEPES, 2 EDTA, 0.01 Escin, pH 7.2.
Cells were harvested for electrophysiological recording upon reaching appropriate confluence. Cells were first washed in DPBS (Hyclone, Cat #SH30028.03) and then 2 ml of Accutase (MP Biomedicals #1000449) was added at 28° C. until ~90% of cells were suspended. F12 HAM's media+1 mM L-glutamine (Hyclone, SH30026.02) was then added to the flask to dilute the accutase. Cells were then triturated until a single cell suspension was achieved, a cell count was performed, and cells were centrifuged for 2 min. at 1,000 rpm. Media was then aspirated, and cells were resuspended in Earle's balanced salt solution to a concentration of 0.75×10^6 cells/ml and allowed to recover for 25 min at 10° C.
At the beginning of each assay, 20 μl of cell suspension was dispensed into each well of a multi-hole 384-well SyncroPatch chip by the onboard pipettor. Cell sealing was initiated, and seal enhancer solution was added to facilitate seal formation. Upon completion of sealing, cells were washed 3 times with extracellular recording solution and the assay voltage protocol was started. Human Kv7.2, Kv7.4 or Kv7.5/7.3 channels were evaluated using a voltage protocol in which cells were voltage-clamped at a holding potential of −60 mV. Potassium currents were continuously activated with a series of three voltage steps to −30 mV for 3 seconds, 40 mV for 1 second and −90 mV for 4 seconds with 12 seconds between successive voltage sweeps. Potassium currents were measured from the −90 mV repolarizing step. Baseline current was assessed for 3.5 minutes prior to the addition of 5.6 μM zinc pyrithione (1 μM for Kv7.4). Kv7.2, Kv7.4 or Kv7.5/7.3 current in the presence of zinc pyrithione was acquired over five minutes to allow channels to reach steady state activity prior to addition of test agents. Channel activity was monitored for three minutes preceding the addition of 30 μM ML-213 (3 minutes) to achieve maximum activation. 150 mM TEA with 10 μM XE-991 was applied for 2 minutes to measure the leak current during maximum inhibition of Kv7.2, Kv7.4 or Kv7.5/7.3 channels.
Data were collected on the SyncroPatch platform using PatchControl software (Nanion) and processed and analyzed using DataControl Software (Nanion). Percent activation was calculated from potassium current as follows: The average current for the 5 sweeps in the presence of zinc pyrithione immediately preceding test agent addition was taken as the ‘control’ data. Likewise, the average potassium current in the presence of test agents 5 sweeps immediately preceding addition of 30 μM ML-213 was determined for ‘drug’ data. The average potassium current 5 sweeps immediately prior to addition of 150 mM TEA+10 μM XE-991 was determined for ‘max activation’ data while average currents from 5 sweeps immediately following addition of TEA was determined for ‘max inhibition’ data. Percent activation for each of the 384-wells of a sealchip was calculated as ((‘drug’−‘max inhibition’)/(‘max activation’−‘max inhibition’))*100 with Pipeline Pilot (Accelrys). […]

T1 sequence (O43526 whole entry): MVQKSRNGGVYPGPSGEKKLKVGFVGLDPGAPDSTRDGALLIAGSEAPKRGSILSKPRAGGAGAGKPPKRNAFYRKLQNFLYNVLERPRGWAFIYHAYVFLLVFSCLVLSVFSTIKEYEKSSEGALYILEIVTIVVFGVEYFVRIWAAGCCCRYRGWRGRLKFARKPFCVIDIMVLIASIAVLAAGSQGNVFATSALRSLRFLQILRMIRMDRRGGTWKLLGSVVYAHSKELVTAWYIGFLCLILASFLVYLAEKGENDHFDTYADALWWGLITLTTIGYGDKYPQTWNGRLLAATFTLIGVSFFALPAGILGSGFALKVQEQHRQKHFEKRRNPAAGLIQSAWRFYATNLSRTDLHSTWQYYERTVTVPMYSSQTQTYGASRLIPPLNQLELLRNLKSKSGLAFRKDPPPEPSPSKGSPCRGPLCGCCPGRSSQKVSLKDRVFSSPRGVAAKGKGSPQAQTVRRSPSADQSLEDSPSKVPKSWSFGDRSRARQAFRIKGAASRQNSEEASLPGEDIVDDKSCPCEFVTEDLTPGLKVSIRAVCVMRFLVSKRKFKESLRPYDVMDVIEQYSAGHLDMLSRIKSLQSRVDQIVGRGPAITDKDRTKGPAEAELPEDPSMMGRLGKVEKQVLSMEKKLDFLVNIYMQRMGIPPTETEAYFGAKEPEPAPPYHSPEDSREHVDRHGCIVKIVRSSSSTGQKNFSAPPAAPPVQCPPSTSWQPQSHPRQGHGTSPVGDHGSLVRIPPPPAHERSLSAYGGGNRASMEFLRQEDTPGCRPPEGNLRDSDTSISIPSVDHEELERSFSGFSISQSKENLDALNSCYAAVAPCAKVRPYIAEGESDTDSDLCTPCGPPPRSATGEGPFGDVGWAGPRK

Compound	pEC50
O=C(CC1(C(F)(F)F)CC1)NCC1(c2cccc(OC(F)F)n2)CCO1 (centres unmarked) [Example 132, N-[[2-[6-(difluoromethoxy)-2-pyridyl]oxetan-2-yl]methyl]-2-[1-(trifluoromethyl)cyclopropyl]acetamide]	5.08
COC(CNC(=O)Nc1cccc(C)c1)c1cccc(Cl)c1 (centres unmarked) [Example 22, 1-[2-(3-chlorophenyl)-2-methoxy-ethyl]-3-(m-tolyl)urea]	5.70
O=C(NCC1(c2cccc(Cl)c2)CCO1)C1CCCCC1 (centres unmarked) [Example 61]	5.12
COC(C)(CNC(=O)NC1CC2CCC1C2)c1cccc(Cl)c1 (racemic) [Example 35, 1-[2-(3-chlorophenyl)-2-methoxy-propyl]-3-[rac-(1S,4R)-norbornan-2-yl]urea]	5.87
O=C(CC12CC(C1)C2)NCC1(c2cccc(Cl)c2)CCO1 (centres unmarked) [Example 63]	5.28
COC(C)(CNC(=O)Nc1cccc(OC(F)(F)F)c1)c1cccc(Cl)c1 (centres unmarked) [Example 29, 1-[2-(3-chlorophenyl)-2-methoxy-propyl]-3-[3-(trifluoromethoxy)phenyl]urea]	5.24
CCCCNC(=O)NCC(C)(OC)c1cccc(Cl)c1 (centres unmarked) [Example 8, 1-butyl-3-[2-(3-chlorophenyl)-2-methoxy-propyl]urea]	5.44
COC(C)(CNC(=O)NCc1cccc(F)c1)c1cccc(Cl)c1 (centres unmarked) [Example 10, 1-[2-(3-chlorophenyl)-2-methoxy-propyl]-3-[(3-fluorophenyl)methyl]urea]	6.12
N#Cc1cccc([C@]2(CNC(=O)CC3CC4(CCC4)C3)CCO2)c1 [Example 116, N-[[(2S)-2-(3-cyanophenyl)oxetan-2-yl]methyl]-2-spiro[3.3]heptan-2-yl-acetamide]	6.21
N#Cc1cccc([C@@]2(CNC(=O)[C@H]3C[C@@H]3c3ccccc3)CCO2)c1 [Example 55, (1S,2S)-N-[[(2R)-2-(3-cyanophenyl)oxetan-2-yl]methyl]-2-phenyl-cyclopropanecarboxamide]	6.10
O=C(NCC1(c2cccc(OC(F)F)n2)CCO1)C1CC12CCOCC2 (centres unmarked) [Example 115, N-[[2-[6-(difluoromethoxy)-2-pyridyl]oxetan-2-yl]methyl]-6-oxaspiro[2.5]octane-2-carboxamide]	5.55
O=C(NCC1(c2cccc(OC(F)F)n2)CCO1)[C@H]1C[C@@H]1c1ccccc1 (stereo partly drawn) [Example 99, (1S,2S)—N-[[2-[6-(difluoromethoxy)-2-pyridyl]oxetan-2-yl]methyl]-2-phenyl-cyclopropanecarboxamide]	6.64
COc1ccc(CCNC(=O)NCC(C)(OC)c2cccc(Cl)c2)cc1 (centres unmarked) [Example 34, 1-[2-(3-chlorophenyl)-2-methoxy-propyl]-3-[2-(4-methoxyphenyl)ethyl]urea]	5.40
CO[C@@](C)(CNC(=O)[C@@H]1C[C@H]1C1CCCC1)c1cccc(Cl)c1 (mixture of isomers) [Example 80, (1RS,2SR)—N-[(2R)-2-(3-chlorophenyl)-2-methoxy-propyl]-2-cyclopentyl-cyclopropanecarboxamide]	6.66
O=C(NCC1(c2cccc(Cl)c2)CCO1)C1CC2(CCC2)C1 (centres unmarked) [Example 64, N-[[2-(3-chlorophenyl)oxetan-2-yl]methyl]spiro[3.3]heptane-2-carboxamide]	5.56
O=C(NCC1CCCC1)NCC1(c2cccc(Cl)c2)CCC(=O)O1 (centres unmarked) [Example 75, 1-[[2-(3-chlorophenyl)-5-oxo-tetrahydrofuran-2-yl]methyl]-3-(cyclopentylmethyl)urea]	6.54

Compound	pEC50
N#Cc1cccc([C@]2(CNC(=O)C3CC34CCOCC4)CCO2)c1 (stereo partly drawn) [Example 106, N-[[(2S)-2-(3-cyanophenyl)oxetan-2-yl]methyl]-6-oxaspiro[2.5]octane-2-carboxamide]	5.39
CO[C@@](C)(CNC(=O)[C@H]1C[C@@H]1c1cccnc1)c1cccc(Cl)c1 (mixture of isomers) [Example 48, (1SR,2SR)-N-[(2R)-2-(3-chlorophenyl)-2-methoxy-propyl]-2-(3-pyridyl)cyclopropanecarboxamide]	5.02
N#Cc1cccc([C@]2(CNC(=O)C3CCC34CCC4)CCO2)c1 (stereo partly drawn) [Example 100, N-[[(2S)-2-(3-cyanophenyl)oxetan-2-yl]methyl]spiro[3.3]heptane-3-carboxamide]	5.01
[2H]C([2H])([2H])OC(C)(CNC(=O)NC1CCCC1)c1cccc(Cl)c1 (centres unmarked) [Example 26, 1-[2-(3-chlorophenyl)-2-(trideuteriomethoxy)propyl]-3-cyclopentyl-urea]	5.40
N#Cc1cccc(C2(CNC(=O)[C@H]3C[C@@H]3c3ccccc3)OCC2(F)F)c1 (stereo partly drawn) [Example 87, (1S,2S)—N-[[2-(3-cyanophenyl)-3,3-difluoro-oxetan-2-yl]methyl]-2-phenyl-cyclopropanecarboxamide]	7.22
N#Cc1cccc([C@@]2(CNC(=O)CC3CCCCCC3)CCO2)c1 [Example 94, N-[[(2R)-2-(3-cyanophenyl)oxetan-2-yl]methyl]-2-cycloheptyl-acetamide]	5.25
N#Cc1cccc([C@]2(CNC(=O)[C@H]3C[C@@H]3C(F)(F)F)CCO2)c1 [Example 95, (1S,2S)—N-[[(2S)-2-(3-cyanophenyl)oxetan-2-yl]methyl]-2-(trifluoromethyl)cyclopropanecarboxamide]	5.59
O=C(N[C@H]1C[C@@H]2CC[C@H]1C2)N[C@H]1C[C@H](c2cccc(Cl)c2)C1 (racemic) [Example 38, 1-[3-(1r,3r)-(3-chlorophenyl)cyclobutyl]-3-[(1SR,2SR,4RS)-norbornan-2-yl]urea]	6.08
N#Cc1cccc(C2(CNC(=O)CC3CCCCC3)COC2)c1 [Example 89, N-[[3-(3-cyanophenyl)oxetan-3-yl]methyl]-2-cyclohexyl-acetamide]	5.55
O=C(NC[C@@]1(c2cccc(Cl)c2)OCC1(F)F)[C@H]1C[C@@H]1c1ccccc1 (stereo in doubt) [Example 41, (1S,2S)-N-[[(2R)-2-(3-chlorophenyl)-3,3-difluoro-oxetan-2-yl]methyl]-2-phenyl-cyclopropanecarboxamide]	7.30
O=C(NCC1(c2cccc(Cl)c2)CCO1)Nc1cccc(Cl)c1 (centres unmarked) [Example 58]	6.09
CO[C@@](C)(CNC(=O)[C@@H]1C[C@H]1C1CC1)c1cccc(Cl)c1 (mixture of isomers) [Example 79, (1RS,2SR)—N-[(2R)-2-(3-chlorophenyl)-2-methoxy-propyl]-2-cyclopropyl-cyclopropanecarboxamide]	5.95
CO[C@@](C)(CNC(=O)CCC(O)C(C)(C)C)c1cccc(Cl)c1 (stereo partly drawn) [Example 69, N-[(2R)-2-(3-chlorophenyl)-2-methoxy-propyl]-4-hydroxy-5,5-dimethyl-hexanamide]	5.20
CC[C@H]1C[C@@H]1C(=O)NC[C@@]1(c2cccc(C#N)c2)CCO1 (mixture of isomers) [Example 126, (1SR,2SR)—N-[[(2S)-2-(3-cyanophenyl)oxetan-2-yl]methyl]-2-ethyl-cyclopropanecarboxamide]	5.30
COC(C)(CNC(=O)NCCCc1ccccc1)c1cccc(Cl)c1 (centres unmarked) [Example 32, 1-[2-(3-chlorophenyl)-2-methoxy-propyl]-3-(3-phenylpropyl)urea]	5.70
N#Cc1cccc([C@]2(CNC(=O)[C@H]3C[C@@H]3c3ccc(F)cc3)CCO2)c1 (mixture of isomers) [Example 107, (1SR,2SR)—N-[[(2S)-2-(3-cyanophenyl)oxetan-2-yl]methyl]-2-(4-fluorophenyl)cyclopropanecarboxamide]	6.89
